We go through 17 molecules from patent US10072023B2, “Diarylethene compounds and uses thereof” (SWITCH MATERIALS, INC., priority 2011, dated 2018).

The structures appear in SMILES notation.

The data set is described as follows: Absorbance at photostationary state (PSS) under simulated sunlight or 365 nm light. It counts as physicochemical. Details: λ max: unit not given here. The conditions noted are these: for Absorbance at PSS, 365 nm: 365 nm light source; for Absorbance at PSS, 365 nm / Absorbance at PSS, full / Absorbance at PSS, +UV / λ max: 2.0×10^−5 M in triglyme; for sensitivity index: ratio of PSS under 365 nm light to PSS under full spectrum light (without UV blocking film); for Absorbance at PSS, full: simulated sunlight (QSUN solar simulator), no UV blocking film; for Absorbance at PSS, +UV: simulated sunlight with UV blocking film (cutoff 370 nm); for λ max: wavelength of maximum absorbance in the visible range, ring-closed isoform. On the procedure: Absorbance at a PSS for selected compounds was measured at 2.0×10^−5 M in triglyme in the absence (full) or presence (+UV) of a UV blocking film with a UV cutoff wavelength of 370 nm (10% transmission at 370 nm), using simulated sunlight (QSUN solar simulator) as a light source, or a 365 nm light source; these PSS are reported in Tables 1.5. […] “Switch” refers to the ability (yes or no) of the compound to be reversibly converted under photochromic and electrochromic conditions between a ring-open isomer and ring-closed isomer.
A sensitivity index (SI) is a ratio of the PSS under 365 nm light to the PSS under full spectrum light (without UV blocking film). SI is an indicator of the sensitivity of the compound to the composition of the incident light (a change in the ratio of UV and visible components)—photochemical ring-opening is induced by a portion of the visible light spectrum.
Photostationary State (PSS) UV/Vis spectra are obtained using an OceanOptics™ Spectrophotometer until absorption in the visible region of the spectrum stabilizes. A 2×10^−5M solution of compound in solvent is prepared, and photofaded using visible light until absorption in the visible region of the spectrum stabilizes. The sample is then irradiated with simulated sunlight (QSUN SS-150 Solar Simulator with xenon arc lamp) until the absorption spectrum stabilizes. To obtain PSS in the presence of a UV blocking film, a second sample is prepared and irradiated as described, with a UV blocking film inserted in the light path when irradiating.

Turning to `CC(C)(C)c1ccc(-c2cc(C3=C(c4cc(-c5ccc(C(C)(C)C)s5)sc4-c4ccc(OCCCO)cc4)C(F)(F)C(F)(F)C3(F)F)c(-c3ccc(OCCCO)cc3)s2)s1` [S111, 3,3′-(4,4′-(4,4′-(perfluorocyclopent-1-ene-1,2-diyl)bis(5′-tert-butyl-2,2′-bithiophene-5,4-diyl))bis(4,1-phenylene)bis(oxy))dipropan-1-ol], the “Absorbance at PSS, 365 nm” value is reported as 0.322; the sensitivity index is 1.10; the “Absorbance at PSS, full” value was 0.292; the “Absorbance at PSS, +UV” value is on record as 0.192. The same molecule displayed a λ max of 646.

As to `COc1cc(OC)cc(-c2cc(C3=C(c4cc(-c5cc(OC)cc(OC)c5)sc4-c4cc(OC)cc(OC)c4)C(F)(F)C(F)(F)C3(F)F)c(-c3cc(OC)cc(OC)c3)s2)c1` [S097, 3,3′-(perfluorocyclopent-1-ene-1,2-diyl)bis(2,5-bis(3,5-dimethoxyphenyl)thiophene)], the “Absorbance at PSS, 365 nm” value is 0.206; the sensitivity index is given as 2.82; the “Absorbance at PSS, full” value is listed as 0.073; the “Absorbance at PSS, +UV” value was 0.029. Also, the λ max is recorded as 611.

Turning to `Cc1ccc(-c2ccc(-c3cc(C4=C(c5cc(-c6ccc(-c7ccc(C)s7)s6)sc5-c5ccc(C)s5)C(F)(F)C(F)(F)C4(F)F)c(-c4ccc(C)s4)s3)s2)s1` [S034, 3′,3″″′-(perfluorocyclopent-1-ene-1,2-diyl)bis(5,5″′-dimethyl-2,2′:5′,2″:5″,2″′-quaterthiophene)], the “Absorbance at PSS, 365 nm” value is recorded as 0.468; the sensitivity index is listed as 1.73; the “Absorbance at PSS, full” value is reported as 0.271; the “Absorbance at PSS, +UV” value is recorded as 0.246. The same molecule yielded a λ max of 690.

As to `CC(C)(C)c1ccc(-c2cc(C3=C(c4cc(-c5ccc(C(C)(C)C)s5)sc4-c4ccc(O)cc4)C(F)(F)C(F)(F)C3(F)F)c(-c3ccc(O)cc3)s2)s1` [S105, 4,4′-(4,4″-(perfluorocyclopent-1-ene-1,2-diyl)bis(5′-(tert-butyl)-[2,2′-bithiophene]-5,4-diyl))diphenol], the “Absorbance at PSS, 365 nm” value is 0.272; the sensitivity index was 1.38; the “Absorbance at PSS, full” value was 0.197; the “Absorbance at PSS, +UV” value is reported as 0.134. For the same molecule, the λ max is reported as 647.

For the molecule `FC1(F)C(c2nc(-c3ccccc3)sc2-c2ccccc2)=C(c2nc(-c3ccccc3)sc2-c2ccccc2)C(F)(F)C1(F)F` [S035, 4,4′-(perfluorocyclopent-1-ene-1,2-diyl)bis(2,5-diphenylthiazole)], the “Absorbance at PSS, 365 nm” value is 0.416; the sensitivity index is 8.32; the “Absorbance at PSS, full” value was 0.05; the “Absorbance at PSS, +UV” value was 0.016. Moreover, the λ max is listed as 540.

On to `CC(C)(C)c1ccc(-c2cc(C3=C(c4cc(-c5ccc(C(C)(C)C)s5)sc4-c4ccc(C(=O)O)s4)C(F)(F)C(F)(F)C3(F)F)c(-c3ccc(C(=O)O)s3)s2)s1` [S119], for which the “Absorbance at PSS, 365 nm” value was 0.405; the “Absorbance at PSS, full” value is reported as 0.343; the “Absorbance at PSS, +UV” value is recorded as 0.295.

As for `COc1ccc2c(C3=C(c4c(-c5ccc(OC)c(OC)c5)oc5cc(OC)ccc45)C(F)(F)C(F)(F)C3(F)F)c(-c3ccc(OC)c(OC)c3)oc2c1` [S155, 3,3′-(perfluorocyclopent-1-ene-1,2-diyl)bis(2-(3,4-dimethoxyphenyl)-6-methoxybenzofuran)], the “Absorbance at PSS, 365 nm” value is on record as 0.329; the sensitivity index is 4.06; the “Absorbance at PSS, full” value is 0.081; the “Absorbance at PSS, +UV” value was 0.045. This molecule had a λ max of 516.

As for `CCOCCOCCOCCOc1ccc2c(C3=C(c4c(-c5ccc(C(C)(C)C)cc5)oc5cc(OCCOCCOCCOCC)ccc45)C(F)(F)C(F)(F)C3(F)F)c(-c3ccc(C(C)(C)C)cc3)oc2c1` [S161, 3,3′-(perfluorocyclopent-1-ene-1,2-diyl)bis(2-(4-(tert-butyl)phenyl)-6-(2-(2-(2-ethoxyethoxy)ethoxy)ethoxy)benzofuran)], the “Absorbance at PSS, 365 nm” value is 0.455; the sensitivity index is recorded as 3.73; the “Absorbance at PSS, full” value is 0.122; the “Absorbance at PSS, +UV” value was 0.06. The λ max is reported as 511.

With `CC(C)(C)c1ccc(-c2cc(C3=C(c4cc(-c5ccc(C(C)(C)C)s5)sc4-c4cccs4)C(F)(F)C(F)(F)C3(F)F)c(-c3cccs3)s2)s1` [S170, 4,4′-(perfluorocyclopent-1-ene-1,2-diyl)bis(5′-tert-butyl-5-(thiopheyl)-2,2′-bithiophene)], the “Absorbance at PSS, full” value was 0.287; the “Absorbance at PSS, +UV” value was 0.182; the λ max was 645.

Take `CC(=O)c1ccc(-c2cc(C3=C(c4cc(-c5ccccc5)sc4-c4ccc(C(C)(C)C)cc4)C(F)(F)C(F)(F)C3(F)F)c(-c3ccc(C(C)(C)C)cc3)s2)cc1` [S065, 1-(4-(5-(4-tert-butylphenyl)-4-(2-(2-(4-tert-butylphenyl)-5-phenylthiophen-3-yl)-3,3,4,4,5,5-hexafluorocyclopent-1-enyl)thiophen-2-yl)phenyl)ethanone]: the “Absorbance at PSS, 365 nm” value was 0.281; the sensitivity index was 2.04; the “Absorbance at PSS, full” value is listed as 0.138; the “Absorbance at PSS, +UV” value is on record as 0.054. Moreover, the λ max is 625.

As to `CC(C)(C)c1ccc(-c2cc(C3=C(c4cc(-c5sc(C(C)(C)C)cc5C(=O)O)sc4-c4ccc(C(=O)O)s4)C(F)(F)C(F)(F)C3(F)F)c(-c3ccc(C(=O)O)s3)s2)s1` [S124], the “Absorbance at PSS, 365 nm” value is given as 0.344; the sensitivity index is recorded as 1.38; the “Absorbance at PSS, full” value is reported as 0.249; the “Absorbance at PSS, +UV” value was 0.225. The molecule further had a λ max of 649.

As to `Cc1csc(-c2cc(C3=C(c4cc(-c5cc(C)cs5)sc4-c4cc(C)cs4)C(F)(F)C(F)(F)C3(F)F)c(-c3cc(C)cs3)s2)c1` [S149, 3′,3″″-(perfluorocyclopent-1-ene-1,2-diyl)bis(4,4″-dimethyl-2,2′:5′,2″-terthiophene)], the “Absorbance at PSS, 365 nm” value was 0.339; the sensitivity index was 1.41; the “Absorbance at PSS, full” value is given as 0.241; the “Absorbance at PSS, +UV” value was 0.169. This molecule gave a λ max of 647.

For the molecule `FC1(F)C(c2cc(-c3ccccc3)sc2-c2ccccc2)=C(c2cc(-c3cccs3)sc2-c2cccs2)C(F)(F)C1(F)F` [S005, 3′-(2-(2,5-diphenylthiophen-3-yl)-3,3,4,4,5,5-hexafluorocyclopent-1-en-1-yl)-2,2′:5′,2″-terthiophene], the “Absorbance at PSS, 365 nm” value is listed as 0.195; the sensitivity index was 2.71; the “Absorbance at PSS, full” value is 0.072; the “Absorbance at PSS, +UV” value was 0.028. The molecule also showed a λ max of 618.

On to `CC(C)(C)c1ccc(-c2oc3cc(O)ccc3c2C2=C(c3c(-c4ccc(C(C)(C)C)cc4)oc4cc(O)ccc34)C(F)(F)C(F)(F)C2(F)F)cc1` [S162, 3,3′-(perfluorocyclopent-1-ene-1,2-diyl)bis(2-(4-(tert-butyl)phenyl)benzofuran-6-ol)], for which the “Absorbance at PSS, 365 nm” value is listed as 0.398; the sensitivity index is 3.34; the “Absorbance at PSS, full” value is 0.119; the “Absorbance at PSS, +UV” value was 0.06. Besides, the λ max was 520.

Consider `COc1ccc2c(C3=C(c4c(-c5ccc(-c6ccc(C(C)(C)C)s6)s5)oc5cc(OC)ccc45)C(F)(F)C(F)(F)C3(F)F)c(-c3ccc(-c4ccc(C(C)(C)C)s4)s3)oc2c1` [S152, 3,3′-(perfluorocyclopent-1-ene-1,2-diyl)bis(2-(5′-(tert-butyl)-[2,2′-bithiophen]-5-yl)-6-methoxybenzofuran)], for which the “Absorbance at PSS, 365 nm” value is given as 0.263; the sensitivity index is 3.81; the “Absorbance at PSS, full” value is on record as 0.069; the “Absorbance at PSS, +UV” value is on record as 0.06. Also, the λ max is recorded as 522.

Regarding `COc1ccc(-c2sc(-c3ccc(C#N)cc3)cc2C2=C(c3cc(-c4ccc(C#N)cc4)sc3-c3ccc(OC)cc3)C(F)(F)C(F)(F)C2(F)F)cc1` [S085], the “Absorbance at PSS, 365 nm” value is recorded as 0.187; the sensitivity index is 1.16; the “Absorbance at PSS, full” value is 0.161; the “Absorbance at PSS, +UV” value is 0.08. This molecule had a λ max of 640.

As to `FC1(F)C(c2cc(-c3ccc(Cl)s3)sc2-c2ccc(Cl)s2)=C(c2cc(-c3ccc(Cl)s3)sc2-c2ccc(Cl)s2)C(F)(F)C1(F)F` [S026, 3′,3″″-(perfluorocyclopent-1-ene-1,2-diyl)bis(5,5″-dichloro-2,2′:5′,2″-terthiophene)], the “Absorbance at PSS, 365 nm” value is given as 0.383; the sensitivity index is reported as 1.53; the “Absorbance at PSS, full” value is given as 0.251; the “Absorbance at PSS, +UV” value is given as 0.196. The molecule further had a λ max of 645.
